{"source": "patent US12680075B2", "about": "“Immune cells derived from induced pluripotent stem cell” (THE CHILDREN'S MEDICAL CENTER CORPORATION, priority 2016, dated 2026)", "format_in_all_cases": "cell-based, human", "key": {"[1]": {"test_system": "5F cells", "assay": "Colony-forming assays of 5F cells treated with GSK126", "conditions": "3 uM GSK126", "description": "Colony assays. After 14 days of respecification, 5×10^4 cells were plated into 3 ml of complete methylcellulose H3434 (StemCell Technologies) supplemented with 10 ng/ml IL6 (Peprotech), 10 ng/ml FLT3 (R&D), and 50 ng/ml TPO (R&D). The mixture was distributed into two 60 mm dishes and maintained in a humidified chamber for 14 days.\n(§1) To dissect the importance of PRC2 in definitive hematopoietic potential, the inventors knocked down each component of PRC2 (2 shRNAs per gene) in 5F cells and assessed T cell differentiation. The inventors confirmed efficient knockdown by each shRNA (FIG. 3A). […] To validate this finding, the inventors used an […], GSK126, that has 150-fold higher selectivity for EZH2 over EZH1 (McCabe et al. 2012) (FIGS. 3G, 3I and 3J). […] To test the effect of EZH2 inhibition on T cell potential, the inventors generated definitive hemogenic endothelium (HE) from hPSCs with T lymphoid potential via inhibition of Activin/Nodal signaling at the early stage of mesoderm differentiation (Kennedy et al. 2012)."}, "[2]": {"test_system": "CD34+ d9 hemogenic endothelial (HE) cells", "assay": "T cell potential of CD34+ d9 hemogenic endothelial cells treated with GSK126", "conditions": "3 uM GSK126 vs DMSO-treated cells", "source_text": "as §1"}, "[3]": {"test_system": "EZH2 and EZH1", "assay": "Total H3K27me3 protein levels in 5F cells treated with GSK126", "description": "At 3 uM, protein levels of total H3K27me3 begins to decrease relative to DMSO control, indicating effective dose for EZH2 and EZH1 inhibition.\nas §1"}}, "data": [{"smiles": "CC[C@H](C)n1cc(C)c2c(C(=O)NCc3c(C)cc(C)[nH]c3=O)cc(-c3ccc(N4CCNCC4)nc3)cc21", "note": "[GSK126]", "values": [{"measurement": "toxicity as assessed by colony-forming assays", "setting": "[1]", "value": "partial toxicity"}, {"measurement": "CD4+CD8+ T cell population", "setting": "[2]", "value": "abrogated"}, {"measurement": "global H3K27me3", "setting": "[3]; 3 uM GSK126, 5F cells", "value": "markedly reduced"}, {"measurement": "concentration at which total H3K27me3 begins to decrease relative to DMSO control (effective dose for EZH2 and EZH1 inhibition)", "setting": "[3]; 5F cells", "value": 3, "unit": "µM"}, {"measurement": "EZH2 and EZH1 enzymatic activity as monitored by total protein levels of H3K27me3", "setting": "[3]; increasing concentration of GSK126, 5F cells", "value": "dose-dependent decrease"}]}]}
